# Experimental data taken from ChEMBL document CHEMBL4340515, “Dione-thiophene conjugate inhibits proliferation and metastasis of nasopharyngeal carcinoma cells through calcium binding protein-P down-regulation” (Eur J Med Chem, 2019).
# The source made the active and inactive calls. The rule behind the calls is not given here.
# Legend:
# C6661 [1] = assay: Antiproliferation activity against human C6661 cells assessed as reduction in cell viability at 10 umol/l incubated for 48 hrs by MTT assay relative to control; assay type: functional
# CNE [2] = assay: Antiproliferation activity against human CNE1 cells assessed as reduction in cell viability at 2 to 10 umol/l incubated for 48 hrs by MTT assay relative to control; assay type: functional, cell-based
# C6661 [3] = assay: Down regulation of MMP-2 protein expression level in human C6661 cells at 1 umol/l incubated for 48 hrs by Western-blot analysis relative to control; assay type: functional, cell-based
# C6661 [4] = assay: Antiproliferation activity against human C6661 cells assessed as reduction in cell viability at 2 to 10 umol/l incubated for 48 hrs by MTT assay relative to control; assay type: functional, cell-based
# C6661 [5] = assay: Antimetastatic activity in human C6661 cells assessed as cell invasion at 2 umol/l after 48 hrs by hematoxylin staining-based transwell invasion assay relative to control; assay type: functional
# C6661 [6] = assay: Induction of apoptosis in human C6661 cells assessed as increase in apoptotic cells population at 2 umol/l incubated for 48 hrs by annexin V-FITC / propidium iodide staining based flow cytometry; assay type: functional
# C6661 [7] = assay: Down regulation of MMP-9 protein expression level in human C6661 cells at 1 umol/l incubated for 48 hrs by Western-blot analysis relative to control; assay type: functional, cell-based
# C6661 [8] = assay: Antimetastatic activity in human C6661 cells assessed as reduction in cell invasion after 48 hrs by hematoxylin staining-based transwell invasion assay; assay type: functional
# C6661 [9] = assay: Down regulation of EGFR protein expression level in human C6661 cells at 4 to 10 umol/l incubated for 48 hrs by Western-blot analysis relative to control; assay type: functional, cell-based
# C6661 [10] = assay: Antimetastatic activity in human C6661 cells assessed as cell invasion at 4 umol/l after 48 hrs by hematoxylin staining-based transwell invasion assay relative to control; assay type: functional
# C6661 [11] = assay: Induction of apoptosis in human C6661 cells assessed as increase in apoptotic cells population at 6 umol/l incubated for 48 hrs by annexin V-FITC / propidium iodide staining based flow cytometry; assay type: functional
# C6661 [12] = assay: Antimetastatic activity in human C6661 cells assessed as cell invasion at 6 umol/l after 48 hrs by hematoxylin staining-based transwell invasion assay relative to control; assay type: functional
# C6661 [13] = assay: Down regulation of RAGE protein expression level in human C6661 cells at 4 to 10 umol/l incubated for 48 hrs by Western-blot analysis relative to control; assay type: functional, cell-based
# C6661 [14] = assay: Induction of apoptosis in human C6661 cells assessed as increase in apoptotic cells population at 4 umol/l incubated for 48 hrs by annexin V-FITC / propidium iodide staining based flow cytometry; assay type: functional
# C6661 [15] = assay: Induction of apoptosis in human C6661 cells assessed as enhanced early apoptotic cells population at 1 to 10 umol/l incubated for 48 hrs by annexin V-FITC / propidium iodide staining based flow cytometry; assay type: functional
# C6661 [16] = assay: Antimetastatic activity in human C6661 cells assessed as cell invasion at 10 umol/l after 48 hrs by hematoxylin staining-based transwell invasion assay relative to control; assay type: functional
# C6661 [17] = assay: Down regulation of RAGE protein expression level in human C6661 cells at 1 umol/l incubated for 48 hrs by Western-blot analysis relative to control; assay type: functional, cell-based
# C6661 [18] = assay: Induction of apoptosis in human C6661 cells assessed as increase in apoptotic cells population at 10 umol/l incubated for 48 hrs by annexin V-FITC / propidium iodide staining based flow cytometry; assay type: functional
# CNE [19] = assay: Antiproliferation activity against human CNE1 cells assessed as reduction in cell viability at 1 umol/l incubated for 48 hrs by MTT assay; assay type: functional, cell-based
# C6661 [20] = assay: Down regulation of CD44 protein expression level in human C6661 cells at 4 to 10 umol/l incubated for 48 hrs by Western-blot analysis relative to control; assay type: functional, cell-based
# C6661 [21] = assay: Antiproliferation activity against human C6661 cells assessed as reduction in cell viability incubated for 48 hrs by MTT assay; assay type: functional, cell-based
# C6661 [22] = assay: Down regulation of S100P mRNA expression in human C6661 cells at 2 to 10 umol/l incubated for 48 hrs by RT-qPCR analysis relative to control; assay type: functional, cell-based
# CNE [23] = assay: Antiproliferation activity against human CNE1 cells assessed as reduction in cell viability incubated for 48 hrs by MTT assay; assay type: functional, cell-based
# CNE [24] = assay: Antiproliferation activity against human CNE1 cells assessed as reduction in cell viability at 10 umol/l incubated for 48 hrs by MTT assay; assay type: functional
# C6661 [25] = assay: Down regulation of S100P protein expression level in human C6661 cells at 2 to 10 umol/l incubated for 48 hrs by Western-blot analysis relative to control; assay type: functional, cell-based
# C6661 [26] = assay: Down regulation of EGFR protein expression level in human C6661 cells at 1 umol/l incubated for 48 hrs by Western-blot analysis relative to control; assay type: functional, cell-based
# C6661 [27] = assay: Down regulation of MMP-2 protein expression level in human C6661 cells at 4 to 10 umol/l incubated for 48 hrs by Western-blot analysis relative to control; assay type: functional, cell-based
# C6661 [28] = assay: Antimetastatic activity in human C6661 cells assessed as cell invasion at 1 umol/l after 48 hrs by hematoxylin staining-based transwell invasion assay relative to control; assay type: functional
# [29] = Cytotoxicity against human NP69 cell assessed as reduction in cell viability at 2 to 10 umol/l incubated for 48 hrs by MTT assay
# C6661 [30] = assay: Down regulation of MMP-9 protein expression level in human C6661 cells at 4 to 10 umol/l incubated for 48 hrs by Western-blot analysis relative to control; assay type: functional, cell-based
# C6661 [31] = assay: Down regulation of CD44 protein expression level in human C6661 cells at 1 umol/l incubated for 48 hrs by Western-blot analysis relative to control; assay type: functional, cell-based
# C6661 [32] = assay: Antiproliferation activity against human C6661 cells assessed as reduction in cell viability at 1 umol/l incubated for 48 hrs by MTT assay; assay type: functional, cell-based
smiles,measurement,setting,value
O=C1CCCCC(=O)C1=CSc1ccccc1C(F)(F)F,Activity,C6661 [1],26%
same,Activity,CNE [2],Active
same,Activity,C6661 [3],inactive
same,Activity,C6661 [4],Active
same,Activity,C6661 [5],89%
same,Activity,C6661 [6],10.54%
same,Activity,C6661 [7],inactive
same,Activity,C6661 [8],Dose-dependent effect
same,Activity,C6661 [9],Active
same,Activity,C6661 [10],63%
same,Activity,C6661 [11],46.24%
same,Activity,C6661 [12],22%
same,Activity,C6661 [13],Active
same,Activity,C6661 [14],23.45%
same,Activity,C6661 [15],2.76 - 69.43%
same,Activity,C6661 [16],11%
same,Activity,C6661 [17],inactive
same,Activity,C6661 [18],61.78%
same,Activity,CNE [19],inactive
same,Activity,C6661 [20],Active
same,Activity,C6661 [21],Active
same,Activity,C6661 [22],Dose-dependent effect
same,Activity,CNE [23],Active
same,Activity,CNE [24],24%
same,Activity,C6661 [25],Dose-dependent effect
same,Activity,C6661 [26],inactive
same,Activity,C6661 [27],Active
same,Activity,C6661 [28],99%
same,Activity,[29],Non-Toxic
same,Activity,C6661 [30],Active
same,Activity,C6661 [31],inactive
same,Activity,C6661 [32],inactive
O=C1CCCCC(=O)C1=CSc1ccccc1Br,Activity,C6661 [21],Active
same,Activity,CNE [23],Active
O=C1CCCCC(=O)C1=CSc1ccccc1Cl,Activity,C6661 [21],Active
same,Activity,CNE [23],Active
N#Cc1ccccc1SC=C1C(=O)CCCCC1=O,Activity,C6661 [21],Active
same,Activity,CNE [23],Active
O=C1CCCCC(=O)C1=CSc1ccccc1F,Activity,C6661 [21],Active
same,Activity,CNE [23],Active
Cc1ncccc1SC=C1C(=O)CCCCC1=O,Activity,C6661 [21],Active
same,Activity,CNE [23],Active
O=C1CCCCC(=O)C1=CSc1ccccc1[N+](=O)[O-],Activity,C6661 [21],Active
same,Activity,CNE [23],Active
